Assay results reported in PMC8839939 (Polymers, 2022).

Columns and labels:
[1] = In-vivo pharmacokinetic study in mice; settings: mouse, plasma
Description: In in-vivo study, the average mouse weight was 24 ± 5 g. Mice were acclimated for 7 days prior to the study and fasted for 24 h before the study. All in-vivo experiments were approved by the ethical committee, Faculty of Pharmacy, Gomal University (No: 10/ERB/GU). The mice were anesthetized under gas anesthesia (i.e., isoflurane in oxygen (2–4% (v/v))). Bulk hairs were removed with an electrical clipper and then a depilatory cream was applied to remove the remaining hair that could interfere with the insertion of LS-TC-MNP [41, 42]. Hairs were removed from the back area of mouse at 4 h prior to experiment. Mice were divided into two groups (n = 16 per group (total: 32)); oral (given the oral LS dispersion) and transdermal (LS-TC-MNP inserted in skin). Mice in the oral group received an oral LS dispersion of (200 mg/kg). The transdermal group was the LS-TC-MNP treatment group, in which each mouse was treated with (LS = 25 mg) LS-TC-MNP. To facilitate the insertion of LS-TC-MNP, the mice were anesthetized by gas anesthesia. The mice skin was pinched, and LS-TC-MNP attached to self-adhesive margins was inserted with firm finger pressure onto the back of each mouse. Blood samples were withdrawn by bleeding the tail vein at predetermined time intervals. The study plan was 16 mice per group and a maximum of (n = 3) blood samples was withdrawn from each mouse. Each mouse was bled twice a day. After 1 and 4 h, blood was withdrawn from the first 4 mice; the next 4 mice were bled after 2 and 6 h; the next four mice at 8 and 24 h; the remaining 4 mice at 12 h; and all mice (n = 16) at 48 h. The area under the curve and other pharmacokinetic parameters were measured by using Pk solver software (Microsoft Excel add-in programm).

[2] = cited from earlier work

CCN1CCC[C@H]1CNC(=O)c1cc(S(N)(=O)=O)ccc1OC [Levosulpiride, 5-(amino-sulfonyl)-N-[(1-ethyl-2-pyrrolidinyl)methyl]-2-methoxy benzamide]
concentration at 1 h ([1]; 1 h, patch LS = 25 mg transdermal or oral dispersion 200 mg/kg): 500 ± 1940 ng/mL
concentration at 2 h ([1]; 2 h, oral dispersion 200 mg/kg, read-out: LS plasma concentration): 200 ng/mL
concentration at 4 h ([1]; 4 h, oral dispersion 200 mg/kg, read-out: LS plasma concentration): 180 ng/mL
concentration at 6 h ([1]; 6 h, patch LS = 25 mg transdermal or oral dispersion 200 mg/kg): 400 ± 1370 ng/mL
intravenous dose excreted unchanged in the urine ([2]; intravenous ref 6): 70–90%
half-life ([2]; oral ref 4): about 6 h
oral bioavailability ([2]; oral ref 4): less than 25%
oral dose excreted unchanged in the urine ([2]; oral ref 6): 15–25%
